Measured values: US5162361A, “Method of treating diseases associated with elevated levels of interleukin 1” (priority 1990, dated 1992)
“Also recorded” adds a separate entry of the source.

How the values were obtained:
IL-1 = IL-1 release from alveolar macrophages (thymocyte co-stimulation bioassay); assay type: cell-based, rat; conditions: 24 h after LPS (5 ng/ml), FIG. 1a
Procedure: Pulmonary alveolar macrophages were collected by lavaging the lungs as previously described (D. B. Warheit et al., Am. Rev. Resp. Dis. 134, 128 (1986)). Once washed and resuspended, the macrophages were allowed to adhere to plastic plates in serum free RPMI 1640 containing 25 mM Hepes, 2 mM L-glutamine, 50 μg/ml gentamicin and streptomycin (media). Following adherence for 1 hour at 37° C. in 5% CO2, the plates were washed once with warm media to remove nonadherent cells, cells were resuspended in media with 10% FCS and treated with or without pentamidine at the indicated concentration and LPS (5 ng/ml) for 24 hours). IL-1 activity was assayed using a thymocyte co-stimulation assay (S. B. Mizel in Methods in Macrophage Biology, Editors, Herscowitz and Holden (1981)). Single cell thymocyte suspension from B6C3F1 mice (female, 5-9 weeks old) at a concentration of 2.0×10^7 /ml in media containing 10% FCS, and 2.5×10^-5 M 2-β mercaptoethanol were added in 50 μl aliquots to each well of flat bottom microtiter plates along with 50 μl of PHA at 2.5 μg/ml. Serial dilution of supernatants or cells were made in media with 10% FCS and added in 100 μl aliquots. IL-1 activity was measured by quantifying the uptake of 3Hthymidine during the last 6 hours of a 72 hour culture at 37° C. and 5% CO2. Cells were harvested onto glass fiber filters and filter associated radioactivity counted in a scintillation counter.
In vitro studies were performed by taking alveolar macrophages from normal healthy rat lungs and culturing them in the presence of an imidazoline with the inducer lipopolysaccharide for 24 hours. The standard bioassay for IL-1 was performed (see above).

IL-1α mRNA = assay: Northern blot analysis of IL-1α mRNA expression; assay type: cell-based, rat; conditions: 10 μM pentamidine, LPS, 3 h, FIG. 2
Procedure: Specific transcription of IL-1α mRNA synthesis was assessed by incubating cells with and without 10 μM pentamidine or 1 μM of the corticosteroid, dexamethasone in the presence or absence of lipopolysaccharide (LPS). At the end of a 3 hour incubation period, the cells were lysed and the total cellular RNA was collected, blotted onto a nitrocellulose filter and probed with ^32 P-labeled IL-1α cDNA. […] In contrast, mRNA for IL-1α was not seen in dexamethasone treated cells.
For determination of IL-1 mRNA levels, cells (4×10^6) were cultured with or without pentamidine (10 μM) or dexamethasone (1 μM) in media with 10% FCS in the presence or absence of LPS (1 μg/ml) for 3 hours. Total cellular RNA was isolated by quanidinium-thiocyanate phenolchloroform extraction (P. Chomczynski et al., Anal. Bioch. 162, 156 (1987)). RNA (10 μg) was electrophoresed in 1.2% agarose gels as previously described (H. Leharch et al., Biochemistry 4743 (1977)). […] Hybridizing species were detected by autoradiography at -70° C., using Kodak XAR film with an intensifying screen. The total RNA levels per lane on the gel was assessed by monitoring 28S and 18S, and expression of α-tubulin mRNA. Accumulation of α-tubulin mRNA was determined by probing the same blot with ^32 P labeled 30 mer oligonucleotide (Du Pont).

membrane IL-1 = assay: Effect on membrane IL-1 (mIL-1 bioassay); assay type: cell-based, rat; conditions: LPS 5 ng/ml, 24 h, FIG. 4
Procedure: Membrane IL-1 was assayed as previously described (E. A. Kurt-Jones et al, Proc. Natl. Acad. Sci. USA, 82, 1204 (1985)). 10^5 cells were cultured in media and 10% FCS with or without pentamidine at varying concentrations and LPS at 5 ng/ml for 24 hours and then fixed to the bottom of the 96 well plates with paraformaldehyde. The IL-1 bioassay was then performed as described in Example 1.

human IL-1 = assay: IL-1 secretion by human alveolar macrophages (enzyme linked immunosorbant assay); assay type: cell-based; conditions: 10^-5 M
Procedure: Dose response studies were performed to determine the molar concentration at which pentamidine reduced viability in normal rat macrophages. […] This blockage was shown using an enzyme linked immunosorbant assay with specific antibody to IL-1β.
Four normal healthy human volunteers were lavaged and their pulmonary macrophages cultured in vitro in the presence of 10^-5 M pentamidine and the IL-1 inducer, lipopolysaccharide. Following 24 hours of incubation, the supernatant fluid was collected and stored at -20° C. for IL-1 determination using an enzyme linked immunosorbant assay with specific antibody to human IL-1.

[1] = test system: Pulmonary alveolar macrophages; assay: Phagocytosis by pulmonary alveolar macrophages (Fluoresbrite beads, flow cytometry); assay type: cell-based, rat
Procedure: One ml aliquots were added to sterile teflon vials (Nalgene) along with pentamidine or dexamethasone (Sigma) as indicated, and incubated for 4 hours at 37° C., 5% CO2. Fluoresbrite carboxylate beads, 1.73 μm (Polysciences) were used to achieve a 100:1 bead to cell ratio and the suspension was incubated for 45 minutes at 37° C., 5% CO2 with gentle agitation. Cell suspensions were then layered over 3 mls. of RPMI/FCS+0.3% BSA, and cells pelleted at 150 xg for 10 minutes. Supernates were discarded and cells resuspended in 1 ml of RPMI/FCS for analysis via flow cytometry. The data presented above is the mean of the percentage of cells taking up one or more beads of triplicate cultures.

tumor necrosis factor = assay: Tumor necrosis factor secretion by human macrophages; assay type: cell-based; conditions: Macrophage, 10^-5 M, read-out: Suppression of tumor necrosis factor secretion
Text: (§1) It has also been observed that pentamidine (10^-5 M) blocks the secretion of tumor necrosis factor in rat macrophages (42 units/ml - pentamidine vs. 82 units/ml - control), as well as tumor necrosis factor and IL-6 in human macrophages, where at a concentration of 10^-5 M pentamidine, tumor necrosis factor and IL-6 secretion are suppressed >50%. These additional cytokines are also very influential mediators in inflammatory diseases.

IL-6 = IL-6 secretion by human macrophages; assay type: cell-based; conditions: Macrophage, 10^-5 M, read-out: Suppression of IL-6 secretion
Text: as §1

N=C(N)c1ccc(OCCCCCOc2ccc(C(=N)N)cc2)cc1 [Pentamidine, 1,5-bis(4-amidinophenoxy)pentane]
IL-1 release (IL-1): decreased in a concentration dependant manner; also recorded: decreased in a concentration dependent manner
IL-1α mRNA expression (IL-1α mRNA): lack of effect on mRNA expression; also recorded: equal amounts of L-1α mRNA
Amount of bioactive membrane IL-1 (mIL-1) (membrane IL-1): increased in a dose related manner
IL-1 (IL-1β) secretion by human macrophages (human IL-1; ELISA with specific antibody to IL-1β, result in words): blocks IL-1 secretion; also recorded: decreased IL-1β release by human macrophages
inhibition at 10 µM (human IL-1; Macrophage, 24 h, cumulative over four human subjects, vs. untreated macrophages of same individual, read-out: Suppression in the amount of IL-1 secreted): 62.1%
Phagocytic Index ([1]; Pentamidine 10^-5 M (control 32)): 32%
Phagocytic capacity of alveolar macrophages ([1]; result in words): did not modulate the phagocytic capacity of alveolar macrophages
inhibition at 10 µM (tumor necrosis factor): > 50%
inhibition at 10 µM (IL-6): > 50%
